Where two headings read alike, the source gives them in different places.
Key:
F1+2, TAT, D-dimer [1] = experiment: Early phase II trials: biomarkers F1+2, TAT and D-dimer; assay type: in vivo, human
Text: (§1) The biomarkers F1+2 and TAT are markers of thrombin formation, while D-dimer is a marker of secondary fibrinolysis.

bleeding events [2] = tested on: bleeding events
Description: (§2) Moreover, secondary evaluations were performed for efficacy by the comparison of the incidence of thromboembolic events, pharmacodynamic indexes, and biomarkers, and for safety by the comparison of the incidences of adverse events and adverse reactions. […] In the group to which warfarin was administered, 0.5-mg and 1-mg warfarin tablets were used and orally administered once a day for 12 weeks as a rule at a dose that allowed PT-INR to be controlled to between 2.0 and 3.0 inclusive (for 70-year-old or older participants, between 1.6 and 2.6 inclusive).
(§3) The clinical trial was carried out by, after obtaining the consent of test subjects, conducting head diagnostic imaging before registration to confirm no bleeding observation, and conducting head diagnostic imaging (CT or MRI), transthoracic echocardiography, lead electrocardiography, blood pressure examination, pulse rate examination, and hematological/biochemical tests.
In the secondary analysis, the hypothesis (comparison) shown below was studied on the incidence of bleeding events using the one-sided Cochran-Armitage test at the 0.025 level of significance.
This clinical trial was carried out in conformity to the standards specified by Article 14 Paragraph 3 and Article 80-2 of the Pharmaceutical Affairs Law and MHW Ordinance No. 28 “Standards for the Implementation of Clinical Trials on Pharmaceutical Products” (Mar. 27, 1997; hereinafter, referred to as the GCP ordinance). The implementation of this clinical trial conformed to the ethical research guidelines of the Declaration of Helsinki and secured the maximal human rights, welfare, and safety of the test subjects. [Protocol No. of this clinical trial: DU-176b-C-J225_Ver.03.05.000].

D-dimer = experiment: Dose comparison study in non-valvular atrial fibrillation patients: biomarker D-dimer; assay type: in vivo, human; conditions: 28 days after administration
Description: as §2, §3, §1

bleeding events [3] = conditions: total knee arthroplasty patients; 5 mg to 60 mg oral once a day 11 to 14 days
Text: The implementation of this clinical trial conformed to the ethical research guidelines of the Declaration of Helsinki and secured the maximal human rights, welfare, and safety of the test subjects.

F1+2, TAT, D-dimer [4] = conditions: atrial fibrillation patients; anticoagulant therapy (N. Vene et al., Thromb Haemost 2003); cited from earlier work
[5] = NVAF patients, 30 mg, 45 mg, 60 mg oral once a day 12 weeks

Structure (SMILES)	levels of biomarkers F1+2, TAT and D-dimer (F1+2, TAT, D-dimer [1])	incidence of bleeding events in four groups divided by BW (60 kg) and Ccr (50) (bleeding events [2]; NVAF patients that received compound (1a))	incidence of bleeding events (major, clinically relevant non-major, minor), dose response (bleeding events [2]; [5])	incidence of bleeding events compared with warfarin group (bleeding events [2]; [5])	incidence of bleeding events, Ccr≦50 versus Ccr>50 (bleeding events [2]; NVAF patients, 45 mg/kg or higher (so in the source))	incidence of bleeding events, BW≦60 kg versus BW>60 kg (bleeding events [2]; NVAF patients, dose of 45 mg/kg or higher (so in the source))	D-dimer (secondary fibrinolysis biomarker) (D-dimer; NVAF patients, compared with warfarin)	D-dimer (secondary fibrinolysis biomarker) (D-dimer; test subjects having no history of warfarin administration, compared with warfarin-administered patients)	incidence of bleeding events compared with placebo group (bleeding events [3])	number of bleeding events (bleeding events [3])	levels of biomarkers F1+2, TAT and D-dimer (F1+2, TAT, D-dimer [4])
CN1CCc2nc(C(=O)N[C@@H]3C[C@@H](C(=O)N(C)C)CC[C@@H]3NC(=O)C(=O)Nc3ccc(Cl)cn3)sc2C1.Cc1ccc(S(=O)(=O)O)cc1 [compound (1a), N^1-(5-chloropyridin-2-yl)-N^2-((1S,2R,4S)-4-[(dimethylamino)carbonyl]-2-{[(5-methyl-4,5,6,7-tetrahydrothiazolo[5,4-c]pyridin-2-yl)carbonyl]amino}cyclohexyl)ethanediamide p-toluenesulfonate monohydrate]	reduce the levels of these biomarkers	highest incidence of bleeding events was obtained in the group of (4) BW≦60 kg, Ccr≦50	increased as the dose of the compound (1a) got higher	no significant difference	higher in the group to which compound (1a) had been administered involving the test subjects having creatinine clearance (Ccr) of Ccr≦50	higher in the group to which compound (1a) had been administered involving the test subjects having a body weight (BW) of BW≦60 kg	comparable to that of warfarin	comparable to that of warfarin-administered patients	did not differ from that in the group to which the placebo had been administered	increased in a manner dependent on the dose	
CC(=O)CC(c1ccccc1)c1c(O)c2ccccc2oc1=O (centres unmarked) [warfarin, warfarin potassium]											decreased by anticoagulant therapy using warfarin

— patent publication US20130184308A1, “ACTIVATED BLOOD COAGULATION FACTOR X (FXa) INHIBITOR” (DAIICHI SANKYO COMPANY, LIMITED, priority 2008, published 2013)
